Laboratory results published in ChEMBL document CHEMBL4725344, “Development of Highly Potent Carbazole Amphiphiles as Membrane-Targeting Antimicrobials for Treating Gram-Positive Bacterial Infections” (J Med Chem, 2020).
In brackets after ≈: the same amount, converted by molar mass. Activity calls are given as the source filed them. The calls are words filed in the database; no cut-off is given here.

What was measured:
Staphylococcus aureus [1] = assay: Antibacterial activity against Staphylococcus aureus ATCC 29213 measured after 24 hrs by microplate reader analysis; type: functional
Staphylococcus aureus [2] = assay: Antibacterial activity against methicillin-resistant Staphylococcus aureus N315 measured after 24 hrs by microplate reader analysis; type: functional
Staphylococcus aureus [3] = assay: Antibacterial activity against methicillin-resistant Staphylococcus aureus NCTC 10442 measured after 24 hrs by microplate reader analysis; type: functional
[4] = Hemolytic activity in rabbit erythrocytes measured after 1 hr by microplate reader analysis; type: ADME, cell-based, Oryctolagus cuniculus, Erythrocyte
[5] = Selectivity index, ratio of HC50 for rabbit erythrocytes to MIC for Staphylococcus aureus ATCC 29213; type: toxicity; details: read-out: Selectivity Index
[6] = Selectivity index, ratio of HC50 for rabbit erythrocytes to MIC for methicillin-resistant Staphylococcus aureus N315; type: toxicity; details: read-out: Selectivity Index
[7] = Selectivity index, ratio of HC50 for rabbit erythrocytes to MIC for methicillin-resistant Staphylococcus aureus NCTC 10442; type: toxicity; details: read-out: Selectivity Index
[8] = Hemolytic activity in rabbit erythrocytes assessed as hemolysis at 200 ug/ml measured after 1 hr by microplate reader analysis relative to control; type: ADME, cell-based, Oryctolagus cuniculus, Erythrocyte; details: at 200 µg/mL, read-out: Activity
Staphylococcus aureus [9] = assay: Bactericidal activity against Staphylococcus aureus ATCC 29213 assessed as log reduction in bacterial count at 8 times MIC preincubated for 1 hr followed by replating on MHA medium measured after 24 hrs by time kill assay; type: functional; details: time 25 hrs
Staphylococcus aureus [10] = assay: Bactericidal activity against Staphylococcus aureus ATCC 29213 assessed as log reduction in bacterial count at 4 times MIC preincubated for 4 hrs followed by replating on MHA medium measured after 24 hrs by time kill assay; type: functional; details: time 28 hrs
Staphylococcus aureus [11] = assay: Antibacterial activity against Staphylococcus aureus ATCC 29213 at 0.5 times MIC passaged daily for 21 days; type: functional, organism-based; details: time 21.0 day
Cell membrane [12] = assay: Induction of inner membrane permeabilization in Staphylococcus aureus ATCC 29213 measured for 1 hr by SYTOX green dye based fluorescence assay; type: subcellular
Cell membrane [13] = assay: Induction of inner membrane permeabilization in methicillin-resistant Staphylococcus aureus NCTC 10442 measured for 1 hr by SYTOX green dye based fluorescence assay; type: subcellular
Cell membrane [14] = assay: Disruption of cell membrane integrity in Staphylococcus aureus ATCC 29213 assessed as increase in red fluorescence at 8 times MIC measured after 2 hrs by Syto9/propidium iodide Live/dead staining based laser confocal microscopic analysis; type: subcellular
Cell membrane [15] = assay: Induction of cell membrane damage in Staphylococcus aureus ATCC 29213 assessed as wrinkle formation at 8 times MIC measured after 2 hrs by SEM analysis; type: subcellular
Cell membrane [16] = assay: Induction of cell membrane damage in Staphylococcus aureus ATCC 29213 assessed as membrane perforation at 8 times MIC measured after 2 hrs by SEM analysis
Cell membrane [17] = assay: Induction of cell membrane damage in Staphylococcus aureus ATCC 29213 assessed as membrane perforation at 8 times MIC measured after 2 hrs by TEM analysis
Staphylococcus aureus [18] = assay: Antibacterial activity against Staphylococcus aureus ATCC 29213 measured after 24 hrs in presence of LTA by microplate reader analysis; type: functional
Staphylococcus aureus [19] = assay: Antibacterial activity against methicillin-resistant Staphylococcus aureus NCTC 10442 measured after 24 hrs in presence of LTA by microplate reader analysis; type: functional
Bacillus subtilis [20] = assay: Displacement of BODIPYTM-TR-cadaverine from Bacillus subtilis LTA at MIC measured after 30 mins by fluorescence assay relative to control
Bacillus subtilis [21] = assay: Displacement of BODIPYTM-TR-cadaverine from Bacillus subtilis LTA at 2 times MIC measured after 30 mins by fluorescence assay relative to control
Bacillus subtilis [22] = assay: Displacement of BODIPYTM-TR-cadaverine from Bacillus subtilis LTA at 4 times MIC measured after 30 mins by fluorescence assay relative to control
Bacillus subtilis [23] = assay: Displacement of BODIPYTM-TR-cadaverine from Bacillus subtilis LTA at 8 times MIC measured after 30 mins by fluorescence assay relative to control
[24] = Cytotoxicity against mouse corneal epithelial cells assessed as cell viability at […] ug/ml measured after 24 hrs by CCK8 assay relative to control; type: cell-based; details: dose 1.56 µg/ml, read-out: Activity
[25] = Cytotoxicity against mouse corneal epithelial cells assessed as cell viability at 3.125 ug/ml measured after 24 hrs by CCK8 assay relative to control; type: cell-based; details: at 3.125 µg/mL, read-out: Activity
[26] = Cytotoxicity against mouse corneal epithelial cells assessed as cell viability at 6.25 ug/ml measured after 24 hrs by CCK8 assay relative to control; type: cell-based; details: at 6.25 µg/mL, read-out: Activity
[27] = Cytotoxicity against mouse corneal epithelial cells assessed as cell viability at 12.5 ug/ml measured after 24 hrs by CCK8 assay relative to control; type: cell-based; details: at 12.5 µg/mL, read-out: Activity
[28] = Cytotoxicity against mouse corneal epithelial cells assessed as cell viability […] measured after 24 hrs by CCK8 assay relative to control; type: cell-based; details: dose 25 µg/ml, read-out: Activity
[29] = Cytotoxicity against mouse corneal epithelial cells assessed as cell viability at 50 ug/ml measured after 24 hrs by CCK8 assay relative to control; type: cell-based; details: at 50 µg/mL, read-out: Activity
[30] = Cytotoxicity against mouse corneal epithelial cells assessed as cell viability at 100 ug/ml measured after 24 hrs by CCK8 assay relative to control; type: cell-based; details: at 100 µg/mL, read-out: Activity
[31] = Cytotoxicity against mouse J774.A1 cells assessed as cell viability at […] ug/ml measured after 24 hrs by CCK8 assay relative to control; type: cell-based; details: dose 1.56 µg/ml, read-out: Activity
[32] = Cytotoxicity against mouse J774.A1 cells assessed as cell viability at 3.125 ug/ml measured after 24 hrs by CCK8 assay relative to control; type: cell-based; details: at 3.125 µg/mL, read-out: Activity
[33] = Cytotoxicity against mouse J774.A1 cells assessed as cell viability at 6.25 ug/ml measured after 24 hrs by CCK8 assay relative to control; type: cell-based; details: at 6.25 µg/mL, read-out: Activity
[34] = Cytotoxicity against mouse J774.A1 cells assessed as cell viability at 12.5 ug/ml measured after 24 hrs by CCK8 assay relative to control; type: cell-based; details: at 12.5 µg/mL, read-out: Activity
[35] = Cytotoxicity against mouse J774.A1 cells assessed as cell viability at 25 ug/ml measured after 24 hrs by CCK8 assay relative to control; type: cell-based; details: at 25 µg/mL, read-out: Activity
[36] = Cytotoxicity against mouse J774.A1 cells assessed as cell viability at 50 ug/ml measured after 24 hrs by CCK8 assay relative to control; type: cell-based; details: at 50 µg/mL, read-out: Activity
[37] = Cytotoxicity against mouse J774.A1 cells assessed as cell viability at 100 ug/ml measured after 24 hrs by CCK8 assay relative to control; type: cell-based; details: at 100 µg/mL, read-out: Activity
[38] = Cytotoxicity against mouse corneal epithelial cells assessed as reduction in cell viability measured after 24 hrs by CCK8 assay; type: cell-based
[39] = Cytotoxicity against mouse J774.A1 cells assessed as reduction in cell viability measured after 24 hrs by CCK8 assay; type: cell-based
Staphylococcus aureus [40] = assay: Antibacterial activity against Staphylococcus aureus ATCC 29213 infected in cyclophosphamide-immunosuppressed C57BL6 mouse cornea assessed as log reduction in corneal bacterial count at 0.5% administered as topical solution for 4 times per day for 3 days and measured post-last dose by standard plate counting method; type: functional; details: time 3 day
[41] = Toxicity in C57BL6 mouse assessed as corneal damage at 0.5% administered as topical solution for 4 times per day for 3 days and measured post-last dose by fluorescein sodium staining based slit-lamp biomicroscopic method; details: in vivo, topical_or_ocular, 72 h, time 3 day
Staphylococcus aureus [42] = assay: Bactericidal activity against Staphylococcus aureus ATCC 29213 assessed as log reduction in bacterial count at 8 times MIC preincubated for 4 hrs followed by replating on MHA medium measured after 24 hrs by time kill assay; type: functional; details: time 28 hrs
Staphylococcus aureus [43] = assay: Antibacterial activity against Staphylococcus aureus ATCC 29213 infected in cyclophosphamide-immunosuppressed C57BL6 mouse cornea assessed as log reduction in corneal bacterial count at 5% administered as topical solution for 4 times per day for 3 days and measured post-last dose by standard plate counting method; type: functional; details: time 3 day

## CC(C)=CCn1c2ccccc2c2c(OCC(O)CNC(=N)N)cccc21 (centres undefined)
Staphylococcus aureus [1]
  MIC: 1.56 µg/mL (≈ 4.26 µM)
Staphylococcus aureus [2]
  MIC: 0.78 µg/mL (≈ 2.13 µM)
Staphylococcus aureus [3]
  MIC: 1.56 µg/mL (≈ 4.26 µM)
[4]
  HC50 at 1 h: > 200 µg/mL
[5]
  selectivity ratio: > 128
[6]
  selectivity ratio: > 128
[7]
  selectivity ratio: > 128
[8]
  hemolysis at 1 h, 200 ug/ml: 3.5%
Staphylococcus aureus [9]
  log(activity): 3.21
Staphylococcus aureus [10]
  log(activity): 3.45
Staphylococcus aureus [11]
  Activity: Active
Cell membrane [12]
  Activity: Dose-dependent effect
Cell membrane [13]
  Activity: Dose-dependent effect
Cell membrane [14]
  Activity: Active
Cell membrane [15]
  Activity: Active
Cell membrane [16]
  Activity: Active
Cell membrane [17]
  Activity: Active
Staphylococcus aureus [18]
  MIC: 1.56 µg/mL
Staphylococcus aureus [19]
  MIC: 1.56 µg/mL
Bacillus subtilis [20]
  inhibition: 12.9%
Bacillus subtilis [21]
  inhibition: 22.3%
Bacillus subtilis [22]
  inhibition: 28.8%
Bacillus subtilis [23]
  inhibition: 35.8%
[24]
  viability at 24 h, 1.56 ug/ml: 88.3%
[25]
  viability at 24 h, 3.125 ug/ml: 87.9%
[26]
  viability at 24 h, 6.25 ug/ml: 85.3%
[27]
  viability at 24 h, 12.5 ug/ml: 75.1%
[28]
  viability at 24 h: 34.1%
[29]
  viability at 24 h, 50 ug/ml: 8.52%
[30]
  viability at 24 h, 100 ug/ml: 6.65%
[31]
  viability at 24 h, 1.56 ug/ml: 96.3%
[32]
  viability at 24 h, 3.125 ug/ml: 95%
[33]
  viability at 24 h, 6.25 ug/ml: 86.2%
[34]
  viability at 24 h, 12.5 ug/ml: 80.5%
[35]
  viability at 24 h, 25 ug/ml: 78.2%
[36]
  viability at 24 h, 50 ug/ml: 28.1%
[37]
  viability at 24 h, 100 ug/ml: 20.5%
[38]
  CC50 at 24 h: 23.8 µg/mL (≈ 65 µM)
[39]
  CC50 at 24 h: 37.2 µg/mL (≈ 102 µM)
Staphylococcus aureus [40]
  log(activity): 4.17
[41]
  Activity: Non-Toxic

## CN[C@H](CC(C)C)C(=O)N[C@H]1C(=O)N[C@@H](CC(N)=O)C(=O)N[C@H]2C(=O)N[C@H]3C(=O)N[C@H](C(=O)N[C@H](C(=O)O)c4cc(O)cc(O)c4-c4cc3ccc4O)[C@H](O)c3ccc(c(Cl)c3)Oc3cc2cc(c3O[C@@H]2O[C@H](CO)[C@@H](O)[C@H](O)[C@H]2O[C@H]2C[C@](C)(N)[C@H](O)[C@H](C)O2)Oc2ccc(cc2Cl)[C@H]1O [VANCOMYCIN]
Staphylococcus aureus [1]
  MIC: 0.78 µg/mL (≈ 0.538 µM)
Staphylococcus aureus [2]
  MIC: 1.56 µg/mL (≈ 1.08 µM)
Staphylococcus aureus [3]
  MIC: 1.56 µg/mL (≈ 1.08 µM)
Staphylococcus aureus [10]
  log(activity): 0.71
Staphylococcus aureus [42]
  log(activity): 1.45
[31]
  viability at 24 h, 1.56 ug/ml: 101%
[32]
  viability at 24 h, 3.125 ug/ml: 99.8%
[33]
  viability at 24 h, 6.25 ug/ml: 99.5%
[34]
  viability at 24 h, 12.5 ug/ml: 98.2%
[35]
  viability at 24 h, 25 ug/ml: 92%
[36]
  viability at 24 h, 50 ug/ml: 91%
[37]
  viability at 24 h, 100 ug/ml: 89.9%
Staphylococcus aureus [43]
  log(activity): 3.99
